Biological target: Tie-2 (Homo sapiens, UniProt Q02763)
Experiment: Tie-2 tyrosine kinase activity assay (luciferase/luciferin ATP consumption with pEY substrate, or 33P-ATP incorporation)
Format: biochemical
Settings: human enzyme Tie-2
Method in brief: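 Values are IC50 categories (A <50 nM to D ≥10,000 nM), with Ki obtainable by fitting rates to a tight-binding model. Assay formats: 33P-ATP phosphate transfer to adsorbed generic substrate counted by scintillation, or luciferase-detected ATP depletion using pEY.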

Chain of Tie-2 (Q02763 23-1124): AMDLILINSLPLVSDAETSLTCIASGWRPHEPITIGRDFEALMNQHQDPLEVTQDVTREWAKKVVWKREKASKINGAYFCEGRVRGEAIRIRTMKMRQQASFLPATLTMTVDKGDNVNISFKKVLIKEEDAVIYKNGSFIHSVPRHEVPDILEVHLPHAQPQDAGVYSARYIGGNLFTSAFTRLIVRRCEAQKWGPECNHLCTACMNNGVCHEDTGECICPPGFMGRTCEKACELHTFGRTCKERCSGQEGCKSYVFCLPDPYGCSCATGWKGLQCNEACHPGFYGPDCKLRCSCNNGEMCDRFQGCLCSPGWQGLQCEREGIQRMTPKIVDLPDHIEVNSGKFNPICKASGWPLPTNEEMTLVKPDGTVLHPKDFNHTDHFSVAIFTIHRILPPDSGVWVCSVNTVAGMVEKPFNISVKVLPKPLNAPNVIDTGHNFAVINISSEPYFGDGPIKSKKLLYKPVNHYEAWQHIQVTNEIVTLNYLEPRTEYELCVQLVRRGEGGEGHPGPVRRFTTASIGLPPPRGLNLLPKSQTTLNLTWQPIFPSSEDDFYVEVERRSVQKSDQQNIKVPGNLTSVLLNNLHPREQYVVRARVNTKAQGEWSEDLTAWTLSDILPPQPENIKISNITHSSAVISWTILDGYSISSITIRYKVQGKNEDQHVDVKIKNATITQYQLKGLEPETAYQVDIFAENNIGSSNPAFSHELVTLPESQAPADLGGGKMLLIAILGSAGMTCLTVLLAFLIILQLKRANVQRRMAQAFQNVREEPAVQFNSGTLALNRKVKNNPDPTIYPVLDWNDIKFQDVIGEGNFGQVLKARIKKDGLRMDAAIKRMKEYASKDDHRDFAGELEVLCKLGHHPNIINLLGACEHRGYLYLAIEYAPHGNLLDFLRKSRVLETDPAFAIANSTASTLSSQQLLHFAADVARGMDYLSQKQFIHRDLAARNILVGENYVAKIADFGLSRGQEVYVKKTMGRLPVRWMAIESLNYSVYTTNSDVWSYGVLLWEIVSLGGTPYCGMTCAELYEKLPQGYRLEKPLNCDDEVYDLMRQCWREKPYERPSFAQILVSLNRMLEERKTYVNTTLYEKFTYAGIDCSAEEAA

| IC50 [µM] | SMILES |
| --- | --- |
| < 0.05 | CCc1cccc(NC(=O)N2CCN(c3nsnc3OCc3ccnc(NC(=O)CN4CCN(C)CC4)c3)CC2)c1 [Example 172, N-(3-ethylphenyl)-4-(4-{[(2-{[(4-methylpiperazin-1-yl)acetyl]amino}pyridin-4-yl)methyl]oxy}-1,2,5-thiadiazol-3-yl)piperazine-1-carboxamide] |
| < 0.05 | CCc1cccc(NC(=O)N2CCN(c3ncccc3OCc3ccnc(NC(=O)OC)c3)CC2)c1 [Example 161, methyl [4-({[2-(4-{[(3-ethylphenyl)amino]carbonyl}piperazin-1-yl)pyridin-3-yl]oxy}methyl)pyridin-2-yl]carbamate] |
| < 0.05 | CN(C(=O)N1CCN(c2ncccc2OCc2ccnc(N)n2)CC1)c1cc(C(F)(F)F)cc(C(F)(F)F)c1 [Example 250, 4-(3-{[(2-aminopyrimidin-4-yl)methyl]oxy}pyridin-2-yl)-N-[3,5-bis(trifluoromethyl)phenyl]-N-methylpiperazine-1-carboxamide] |
| < 0.05 | CCc1ccc(F)c(NC(=O)N2CCN(c3nc(Cl)ccc3OCc3ccnc(N)n3)CC2)c1 [Example 246, 4-(3-{[(2-aminopyrimidin-4-yl)methyl]oxy}-6-chloropyridin-2-yl)-N-(5-ethyl-2-fluorophenyl)piperazine-1-carboxamide] |
| 0.05 to 1 | CC1CN(c2nc3ccccc3nc2OCc2ccncc2)CCN1C(=O)Nc1cccc(C(F)(F)F)c1 (centres unmarked) [Example 76, 2-methyl-4-{3-[(pyridin-4-ylmethyl)oxy]quinoxalin-2-yl}-N-[3-(trifluoromethyl)phenyl]piperazine-1-carboxamide] |
| < 0.05 | CCc1cccc(NC(=O)N2CCN(c3nsnc3OCc3ccnc(NC(=O)OC)c3)CC2)c1 [Example 133, methyl [4-({[4-(4-{[(3-ethylphenyl)amino]carbonyl}piperazin-1-yl)-1,2,5-thiadiazol-3-yl]oxy}methyl)pyridin-2-yl]carbamate] |
| < 0.05 | CCN(CC)CCOC(=O)Nc1cc(COc2nsnc2N2CCN(C(=O)Nc3cc(C(F)(F)F)cc(C(F)(F)F)c3)CC2)ccn1 [Example 160, 2-(diethylamino)ethyl {4-[({4-[4-({[3,5-bis(trifluoromethyl)phenyl]amino}carbonyl)piperazin-1-yl]-1,2,5-thiadiazol-3-yl}oxy)methyl]pyridin-2-yl}carbamate] |
| < 0.05 | CN1CCN(CC(=O)Nc2cc(COc3cccnc3N3CCN(C(=O)Nc4cc(C(F)(F)F)cc(C(F)(F)F)c4)CC3)ccn2)CC1 [Example 173, N-[3,5-bis(trifluoromethyl)phenyl]-4-(3-{[(2-{[(4-methylpiperazin-1-yl)acetyl]amino}pyridin-4-yl)methyl]oxy}pyridin-2-yl)piperazine-1-carboxamide] |
| 0.05 to 1 | COc1cccc(NC(=O)N2CCN(c3ncccc3OCc3ccnc(N)n3)CC2)c1 [Example 166, 4-(3-{[(2-aminopyrimidin-4-yl)methyl]oxy}pyridin-2-yl)-N-[3-(methyloxy)phenyl]piperazine-1-carboxamide] |
| < 0.05 | CCc1cccc(NC(=O)N2CCN(c3nc(C)ccc3OCc3ccnc(N)n3)CC2)c1 [Example 227, 4-(3-{[(2-aminopyrimidin-4-yl)methyl]oxy}-6-methylpyridin-2-yl)-N-(3-ethylphenyl)piperazine-1-carboxamide] |
| < 0.05 | CCc1cc(Cl)cc(NC(=O)N2CCN(c3nccnc3OCc3ccnc(N)n3)CC2)c1 [Example 202, 4-(3-{[(2-aminopyrimidin-4-yl)methyl]oxy}pyrazin-2-yl)-N-(3-chloro-5-ethylphenyl)piperazine-1-carboxamide] |
| < 0.05 | CC1CN(c2nccnc2OCc2ccncc2)CCN1C(=O)Nc1cc(C(F)(F)F)cc(C(F)(F)F)c1 (centres unmarked) [Example 62, N-[3,5-bis(trifluoromethyl)phenyl]-2-methyl-4-{3-[(pyridin-4-ylmethyl)oxy]pyrazin-2-yl}piperazine-1-carboxamide] |
| 0.05 to 1 | O=C(Nc1cc(C(F)(F)F)cc(C(F)(F)F)c1)N1CCN(c2nccnc2OCc2ccnc(F)c2)CC1 [Example 89, N-[3,5-bis(trifluoromethyl)phenyl]-4-(3-{[(2-fluoropyridin-4-yl)methyl]oxy}pyrazin-2-yl)piperazine-1-carboxamide] |
| 1 to 10 | O=C(Nc1cc(C(F)(F)F)cc(C(F)(F)F)c1)N1CCN(c2nsnc2NCc2ccncc2)CC1 [Example 44, N-[3,5-bis(trifluoromethyl)phenyl]-4-{4-[(pyridin-4-ylmethyl)amino]-1,2,5-thiadiazol-3-yl}piperazine-1-carboxamide] |
| < 0.05 | CCc1cccc(NC(=O)N2CCN(c3ncccc3OCc3ccnc(NC(=O)OCCN4CCN(C)CC4)c3)CC2)c1 [Example 182, 2-(4-methylpiperazin-1-yl)ethyl [4-({[2-(4-{[(3-ethylphenyl)amino]carbonyl}piperazin-1-yl)pyridin-3-yl]oxy}methyl)pyridin-2-yl]carbamate] |
| < 0.05 | Nc1nccc(COc2cccnc2N2CCN(C(=O)Nc3cccc(C(F)(F)F)c3)CC2)n1 [Example 174, 4-(3-{[(2-aminopyrimidin-4-yl)methyl]oxy}pyridin-2-yl)-N-[3-(trifluoromethyl)phenyl]piperazine-1-carboxamide] |
| < 0.05 | O=C(CN1CCOCC1)Nc1cc(COc2nsnc2N2CCN(C(=O)Nc3cc(C(F)(F)F)cc(C(F)(F)F)c3)CC2)ccn1 [Example 151, N-[3,5-bis(trifluoromethyl)phenyl]-4-{4-[({2-[(morpholin-4-ylacetyl)amino]pyridin-4-yl}methyl)oxy]-1,2,5-thiadiazol-3-yl}piperazine-1-carboxamide] |
| < 0.05 | O=C(Nc1cc(C(F)(F)F)cc(C(F)(F)F)c1)N1CCN(c2ccccc2OCc2ccncc2)CC1 [Example 72, N-[3,5-bis(trifluoromethyl)phenyl]-4-{2-[(pyridin-4-ylmethyl)oxy]phenyl}piperazine-1-carboxamide] |
| ≥ 10 | CNC(=O)N1CCN(c2ncccc2OCc2ccnc(N)n2)CC1 [Example 204, 4-(3-{[(2-aminopyrimidin-4-yl)methyl]oxy}pyridin-2-yl)-N-methylpiperazine-1-carboxamide] |
| ≥ 10 | Nc1nccc(COc2nsnc2N2CCN(C(=O)Cc3ccc4ccccc4c3)CC2)n1 [Example 280, 4-[({4-[4-(naphthalen-2-ylacetyl)piperazin-1-yl]-1,2,5-thiadiazol-3-yl}oxy)methyl]pyrimidin-2-amine] |
